Calls of active or inactive are those of the source. Cut-off read from the data, not from the text of the source: active = IC50 of 20 µM or less and inactive = more.
How the values were obtained:
Assay type in all cases: functional
Settings in all cases: read-out: IC50_Mean
[1] = target: T1, Sentrin-specific protease 1 (Homo sapiens, UniProt Q9P0U3); assay: potency of human SENP1 inhibitors, dose response, biochemical, kinetic FRET (AID 651697)
T1 sequence (Q9P0U3 whole entry): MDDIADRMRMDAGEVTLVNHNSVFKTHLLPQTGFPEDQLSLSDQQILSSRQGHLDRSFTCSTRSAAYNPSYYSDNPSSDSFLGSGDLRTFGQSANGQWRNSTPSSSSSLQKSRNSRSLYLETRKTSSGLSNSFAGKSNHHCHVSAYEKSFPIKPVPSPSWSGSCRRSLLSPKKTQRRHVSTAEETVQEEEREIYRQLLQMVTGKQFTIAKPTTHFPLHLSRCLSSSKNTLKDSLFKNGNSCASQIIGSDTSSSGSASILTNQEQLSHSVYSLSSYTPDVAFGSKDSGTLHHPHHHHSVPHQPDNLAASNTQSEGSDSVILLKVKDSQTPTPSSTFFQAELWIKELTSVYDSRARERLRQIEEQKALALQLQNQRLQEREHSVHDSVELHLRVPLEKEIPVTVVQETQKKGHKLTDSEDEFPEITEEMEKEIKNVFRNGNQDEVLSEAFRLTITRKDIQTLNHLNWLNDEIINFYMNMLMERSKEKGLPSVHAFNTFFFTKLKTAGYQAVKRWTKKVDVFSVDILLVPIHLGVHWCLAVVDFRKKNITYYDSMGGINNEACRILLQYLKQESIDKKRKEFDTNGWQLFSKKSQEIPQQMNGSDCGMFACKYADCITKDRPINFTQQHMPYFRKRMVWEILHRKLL

[2] = target: T1, Sentrin-specific protease 1; assay: Dose response confirmation of small molecule inhibitors of the catalytic domain of the SUMO protease, SENP1 in a FRET assay.
[3] = target: T2, Small ubiquitin-related modifier 1 (Homo sapiens, UniProt P63165); assay: inhibitors of SUMO1 partner interactions, dose response, biochemical, FRET (AID 624383)
T2 sequence (P63165 whole entry): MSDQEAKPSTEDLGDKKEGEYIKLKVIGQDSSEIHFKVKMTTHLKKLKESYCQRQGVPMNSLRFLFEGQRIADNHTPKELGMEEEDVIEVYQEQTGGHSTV

[4] = target: T2, Small ubiquitin-related modifier 1; assay: inhibitors of SUMO1 peptide binding, dose response, biochemical, fluorescence polarization, uHTS hits (AID 624382)

With `Nc1ccc2c(c1)C(=O)N(CCCC(=O)O)C2=O` the IC50 [1] was 13.1 µM (active) and the IC50 [2] was 19 µM (active).

In the case of `CC(=O)c1ccc(OCCCC(=O)OCC(=O)Nc2ccc3[nH]c(O)nc3c2)cc1`, the IC50 [3] is reported as 16.9 µM (active) and the IC50 [4] is reported as > 66.6 µM (inactive).

— ChEMBL document CHEMBL1201862, “PubChem BioAssay data set” (2004)
